This is an account of results in ChEMBL document CHEMBL5137131, “Mechanisms of Biochanin A Alleviating PM2.5 Organic Extracts-Induced EMT of A549 Cells through the PI3K/Akt Pathway” (J Nat Prod, 2022).

The subject of assay [1] is A549. Kind of assay: Inhibition of PM2.5 induced PI3K expression in human A549 cells at 10 uM by qRT-PCR analysis. It counts as functional, cell-based.
The target in assay [2] is Serine/threonine-protein kinase AKT (Homo sapiens) (UniProt P31751+Q9Y243+P31749). Kind of assay: Inhibition of PM2.5 induced Akt phosphorylation upregulation in human A549 cells at 10 uM by Western blot analysis relative to control. It counts as cell-based. On the technique in general: A western blot detects proteins with antibodies after separation by electrophoresis.

Assay [3] concerns A549. Put plainly: Inhibition of PM2.5 induced E-cadherin downregulation in human A549 cells at 10 uM by Western blot analysis. It counts as functional, cell-based.
The subject of assay [4] is A549. Put plainly: Downregulation of PM2.5 induced Snail expression in human A549 cells. It counts as functional, cell-based.
Assay [5] has as its system A549. Kind of assay: Downregulation of PM2.5 induced Slug expression in human A549 cells. It counts as functional, cell-based.
For assay [6], the system named is A549. Kind of assay: Downregulation of PM2.5 induced vimentin expression in human A549 cells at 10 uM by Western blot analysis. It counts as functional, cell-based.
Assay [7] has as its system A549. Kind of assay: Inhibition of PM2.5 induced Akt phosphorylation in human A549 cells at 10 uM […]. It counts as functional, cell-based. (In general: In qPCR the cycle at which signal appears reflects the starting amount.)
Assay [8] deals with A549. Put plainly: Inhibition of PM2.5 induced PI3K upregulation in human A549 cells at 10 uM by Western blot analysis relative to control. It counts as functional.

Calls of active or inactive are those of the source. No cut-off for these calls is given here.

Chain of Serine/threonine-protein kinase AKT (Homo sapiens) (P31749 whole entry, looked up): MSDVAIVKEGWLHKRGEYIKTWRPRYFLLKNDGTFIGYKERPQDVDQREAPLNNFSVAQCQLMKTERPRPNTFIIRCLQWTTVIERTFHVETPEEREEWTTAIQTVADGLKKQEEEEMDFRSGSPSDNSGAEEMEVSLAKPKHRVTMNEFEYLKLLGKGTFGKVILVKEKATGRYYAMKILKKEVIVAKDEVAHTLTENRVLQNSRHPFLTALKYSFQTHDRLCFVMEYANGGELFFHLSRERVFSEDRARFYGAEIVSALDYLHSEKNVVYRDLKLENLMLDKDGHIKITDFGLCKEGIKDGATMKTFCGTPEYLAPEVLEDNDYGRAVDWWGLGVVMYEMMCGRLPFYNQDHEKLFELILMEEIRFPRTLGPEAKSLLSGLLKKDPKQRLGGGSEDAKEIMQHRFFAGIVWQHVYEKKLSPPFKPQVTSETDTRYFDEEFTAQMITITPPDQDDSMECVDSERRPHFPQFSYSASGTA
Chain of Serine/threonine-protein kinase AKT (Homo sapiens) (P31751 whole entry, looked up): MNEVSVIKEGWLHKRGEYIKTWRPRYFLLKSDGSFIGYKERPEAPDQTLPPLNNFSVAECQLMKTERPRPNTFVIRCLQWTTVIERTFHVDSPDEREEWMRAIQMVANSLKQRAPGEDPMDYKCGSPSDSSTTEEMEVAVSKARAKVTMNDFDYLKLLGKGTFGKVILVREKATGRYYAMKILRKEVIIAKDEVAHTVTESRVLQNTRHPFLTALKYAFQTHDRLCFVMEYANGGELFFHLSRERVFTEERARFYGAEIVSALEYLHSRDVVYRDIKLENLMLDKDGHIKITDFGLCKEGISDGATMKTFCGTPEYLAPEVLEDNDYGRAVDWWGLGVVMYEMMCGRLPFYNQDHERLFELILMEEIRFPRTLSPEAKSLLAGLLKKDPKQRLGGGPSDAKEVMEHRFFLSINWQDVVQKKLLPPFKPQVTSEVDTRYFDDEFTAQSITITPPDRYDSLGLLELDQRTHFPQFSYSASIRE
Chain of Serine/threonine-protein kinase AKT (Homo sapiens) (Q9Y243 whole entry, looked up): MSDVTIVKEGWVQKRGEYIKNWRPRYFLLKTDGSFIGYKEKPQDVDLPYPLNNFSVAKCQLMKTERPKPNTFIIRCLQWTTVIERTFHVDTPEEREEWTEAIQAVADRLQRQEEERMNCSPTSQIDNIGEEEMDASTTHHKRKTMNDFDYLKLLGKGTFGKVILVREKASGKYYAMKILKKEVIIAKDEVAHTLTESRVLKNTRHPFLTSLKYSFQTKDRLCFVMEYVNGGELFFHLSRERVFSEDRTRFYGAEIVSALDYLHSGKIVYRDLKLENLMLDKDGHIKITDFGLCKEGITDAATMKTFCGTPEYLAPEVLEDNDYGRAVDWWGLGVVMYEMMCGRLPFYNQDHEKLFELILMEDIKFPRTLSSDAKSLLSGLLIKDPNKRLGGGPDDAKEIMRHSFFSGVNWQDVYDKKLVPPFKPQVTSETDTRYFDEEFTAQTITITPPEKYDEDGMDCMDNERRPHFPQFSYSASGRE

The inhibition is the drop in the measured response relative to a control, in per cent. With `O=c1cc(N2CCOCC2)oc2c(-c3ccccc3)cccc12` [LY-294002], the inhibition result in the assay on A549 [1], in the assay with A549 [3] and with A549 [7] was “Active” throughout. In assay [2], this molecule registered an inhibition of 15%. The result with A549 [4], in the assay with A549 [5] and with A549 [6] was Active. In the assay with A549 [8], this molecule came in with an inhibition at 10 µM of 84.3%.
